This passage reports EC50 results from patent US11377425B1, “Small molecule modulators of IL-17” (LEO Pharma A/S, priority 2018, dated 2022).

The target of this experiment is T1, human IL-17AA (Homo sapiens, UniProt Q16552).
T1 construct: host or cells: HEK (human embryonic kidney) cells
T1 sequence (Q16552 24-155): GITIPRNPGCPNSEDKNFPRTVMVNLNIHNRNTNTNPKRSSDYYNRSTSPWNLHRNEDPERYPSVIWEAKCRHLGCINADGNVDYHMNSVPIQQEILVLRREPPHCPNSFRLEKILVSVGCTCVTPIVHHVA
Put plainly: IL-8 release assay in human epithelial keratinocytes adult (HEKa). It is filed as cell-based. The settings on record: HEKa cells, 3 ng/mL HEK-human IL-17AA + 10 ng/mL human TNFalpha; read-out: Rel EC50 IL-8 release assay. In a few lines:
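Adult human epidermal keratinocytes stimulated 68-72 h at 37 °C with 3 ng/mL HEK-derived human IL-17AA plus 10 ng/mL TNF-alpha (final) in the presence of compound; TNF-alpha alone defines 100% inhibition. Secreted IL-8 measured by HTRF as percent of controls; relative IC50/Emax from four-parameter fit (r^2>0.9), cytotoxicity by PrestoBlue.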

By EC50 is commonly meant the concentration needed to bring the measured effect to its halfway point. As to `CCCn1nccc1C(=O)N[C@H](C(=O)Nc1ccc(-c2c(C)n[nH]c2C)cc1)C(C1CC1)C1CC1` [Example 133, N-[(1S)-1-(dicyclopropylmethyl)-2-[4-(3,5-dimethyl-1H-pyrazol-4-yl)anilino]-2-oxo-ethyl]-2-propyl-pyrazole-3-carboxamide], the EC50 is less than 100 nM.

With `Cc1n[nH]c(C)c1-c1ccc(NC(=O)[C@@H](NC(=O)c2ccnn2[C@@H](C)CO)[C@@H]2C[C@H](C)C[C@H](C)C2)cc1` [Example 141, N-[(1S)-1-[(3R,55)-3,5-dimethylcyclohexyl]-2-[4-(3,5-dimethyl-1H-pyrazol-4-yl)anilino]-2-oxo-ethyl]-2-[(1S)-2-hydroxy-1-methyl-ethyl]pyrazole-3-carboxamide], the 50% effective concentration (EC50) was less than 100 nM.

With `Cc1n[nH]c(C)c1-c1ccc(NC(=O)[C@@H](NC(=O)c2ccnn2C)C2C[C@@H](C)C[C@@H](C)C2)cc1` (stereo partly drawn) [Example 146, N-[(1S)-1-[(3R,5S)-3,5-dimethylcyclohexyl]-2-[4-(3,5-dimethyl-1H-pyrazol-4-yl)anilino]-2-oxo-ethyl]-2-methyl-pyrazole-3-carboxamide], the half-maximal effective concentration (EC50) was less than 100 nM.

With `Cc1n[nH]c(C)c1-c1ccc(NC(=O)[C@@H](NC(=O)c2ccnn2C)C2C[C@@H](C)C[C@@H](C)C2)cc1` (stereo partly drawn) [Example 147, N-[(1S)-1-[(3R,5S)-3,5-dimethylcyclohexyl]-2-[4-(3,5-dimethyl-1H-pyrazol-4-yl)anilino]-2-oxo-ethyl]-2-methyl-pyrazole-3-carboxamide], the EC50 is less than 100 nM.

For the molecule `Cc1n[nH]c(C)c1-c1ccc(NC(=O)[C@@H](NC(=O)c2cnnn2C(C)C)[C@H]2CC[C@H](C)CC2)cc1` [Example 148, N-[(1S)-2-[4-(3,5-dimethyl-1H-pyrazol-4-yl)anilino]-1-(4-methylcyclohexyl)-2-.oxo-ethyl]-3-isopropyl-tnazole-4-carboxamide], the EC50 was less than 100 nM.

Regarding `CCn1nncc1C(=O)N[C@H](C(=O)Nc1ccc(-c2c(C)n[nH]c2C)cc1)[C@H]1CC[C@H](C)CC1` [Example 149, N-[(1S)-2-[4-(3,5-dimethyl-1H-pyrazol-4-yl)anilino]-1-(4-methylcyclohexyl)-2-oxo-ethyl]-3-ethyl-triazole-4-carboxamide], the concentration for a half-maximal effect (EC50) is 100 to 1000 nM.

On to `Cc1n[nH]c(C)c1-c1ccc(NC(=O)[C@@H](NC(=O)c2ccnn2CCS(C)(=O)=O)C(C2CC2)C2CC2)cc1` [Example 158, N-[(1S)-1-(dicyclopropylmethyl)-2-[4-(3,5-dimethyl-1H-pyrazol-4-yl)anilino]-2-oxo-ethyl]-2-(2-methylsulfonylethyl) pyrazole-3-carboxamide], for which the half-maximal effective concentration (EC50) was less than 100 nM.

For the molecule `Cc1n[nH]c(C)c1-c1ccc(NC(=O)[C@@H](NC(=O)c2ncnn2C(C)C)C(C2CC2)C2CC2)cc1` [Example 162, N-[(1S)-1-(dicyclopropylmethyl)-2-[4-(3,5-dimethyl-1H-pyrazol-4-yl)anilino]-2-oxo-ethyl]-2-isopropyl-1,2,4-triazole-3-carboxamide], the EC50 was in the range of 100 to 1000 nM.

For the molecule `Cc1n[nH]c(C)c1-c1ccc(NC(=O)[C@@H](NC(=O)c2ncnn2C)C(C2CC2)C2CC2)cc1` [Example 163, N-[(1S)-1-(dicyclopropylmethyl)-2-[4-(3,5-dimethyl-1H-pyrazol-4-yl)anilino]-2-oxo-ethyl]-2-methyl-1,2,4-triazole-3-carboxamide], the half-maximal effective concentration (EC50) is greater than 1000 nM.

For `Cc1n[nH]c(C)c1-c1ccc(NC(=O)[C@@H](NC(=O)c2ccnn2CCCO)C(C2CCC2)C2CCC2)cc1` [Example 166, N-[(1S)-1-[di(cyclobutyl)methyl]-2-[4-(3,5-dimethyl-1H-pyrazol-4-yl)anilino]-2-oxo-ethyl]-2-(3-hydroxypropyl)pyrazole-3-carboxamide], the EC50 is less than 100 nM.

Regarding `Cc1n[nH]c(C)c1-c1ccc(NC(=O)[C@@H](NC(=O)c2ccccc2)C(C2CC2)C2CC2)cc1` [Example 167, N-[(1S)-1-(dicyclopropylmethyl)-2-[4-(3,5-dimethyl-1H-pyrazol-4-yl)anilino]-2-oxo-ethyl]benzamide], the half-maximal effective concentration (EC50) was 100 to 1000 nM.
